Source: patent US6858644B2, “Paclitaxel solvates” (Bristol-Myers Squibb Co., priority 2001, dated 2005)

Assays:
[1] = Hygroscopicity and solid-form stability of paclitaxel crystal forms; assay type: physicochemical

Row | Structure (SMILES) | water solubility | conversion of crystal form ([1]; Form A: relative humidity greater than about 90% or aqueous suspensions, Form D: relatively high humidity) | hygroscopicity ([1]; normal laboratory conditions (RH approximately 50-60%; 20-30° C.))
1 | CC(=O)OC1C(=O)C2(C)C(O)CC3OCC3(OC(C)=O)C2C(OC(=O)c2ccccc2)C2(O)CC(OC(=O)C(O)C(NC(=O)c3ccccc3)c3ccccc3)C(C)=C1C2(C)C.O.O.O (stereo not shown) [Form B] | even less water soluble than Form A |  | 
2 | CC(=O)O[C@H]1C(=O)[C@@]2(C)[C@H]([C@H](OC(=O)c3ccccc3)[C@]3(O)C[C@H](OC(=O)[C@H](O)[C@@H](NC(=O)c4ccccc4)c4ccccc4)C(C)=C1C3(C)C)[C@]1(OC(C)=O)CO[C@@H]1C[C@@H]2O [Form A, Paclitaxel] | highly water insoluble | converts (as a function of time, temperature, agitation, etc.) to a thermodynamically more stable form | substantially non-hygroscopic
